From US4006237A, “Tetrahydrocarbostyril derivatives for the prophylaxis of asthma, hayfever and rhinitis” (Beecham Group Limited, priority 1973, dated 1977)

Test system: rat PCA response
Test: Rat Passive Cutaneous Anaphylaxis (PCA) test
Type: in vivo, rat (male Wistar serum donors; Wistar test rats)
Procedure: Some of the substituted 4-hydroxy-3-nitro-α-pyridones prepared in the previous examples were submitted for biological testing. The test system was the Rat Passive Cutaneous Anaphylaxis (PCA) test described below in (ii).
i. Serum containing heat labile homocytotropic antibody was raised in rats by a method similar to that used by Mota. (I. Mota Immunology 1964, 7, 681).
Male Wistar rats of 250- 300g, were injected intraperitoneally with 0.5ml of Bordatella pertussis vaccine (containing 4 × 10^10 dead organism per ml) and subcutaneously with 0.5ml of an emulsion of 100mg of ovalbumin in 2ml of saline and 3ml of incomplete Freunds' adjuvant. Rats were bled by cardiac puncture on day 18, the blood was pooled and separated and serum stored at -20° C and thawed only once before use.
ii. The P.C.A. test was similar to that described by Ovary and Bier (A. Ovary and O. E. Bier, Proc. Soc. Exp. Biol.Med.1952, 81, 584) and Goose and Blair (J. Goose and A. M. J. N. Blair, Immunology 1969, 16, 769).
0.1ml. of each six twofold serial dilutions of the serum in 0.9% saline were injected intradermally into separate sites on the shaved dorsal surface of 250-350 g Wistar rats. 72 hours later the animals were challenged by i.v. injection of 0.3ml of 1% ovalbumin mixed with 0.1ml of a 5% solution of pontamine sky blue dye both in isotonic saline buffered with pH 7.2 Sorenson buffer (P.B.S.). The rats were killed after 20 minutes and the diameter of the blue wheals at the antibody injection sites were measured. The starting dilution of the serum was adjusted so that there was no response, after challenge, at the site of injection of the highest dilution and a maximum response at the lowest dilution. Typically, six twofold serial dilutions of the serum from 1/4 to 1/128 were used.
Compounds were tested for their ability to reduce the diameter of the wheals at the injection sites of dilutions of antibody which on all the controls have less than maximum response. Amounts of the compounds were administered to rats each amount to a test group of six animals at a specified time prior to intravenous challenge with ovalbumin. The diameters of the blue wheals which developed on the test group of animals were compared with those on a control group of six animals treated in the same way as the test group, but which had not received the compound under test.
% Inhibition of P.C.A. = 100 (1 - (a/b))
a = The mean of the sum of the diameters of the wheels produced in the test group of animals at those antibody sites where all the control group of animals gave less than maximum response.
b = The mean of the sum of diameters of the wheals produced in the control group of animals at those antibody sites where all the animals in the group gave less than the maximum response.
The compounds were administered either as a solution of the free nitro compound or as a solution or suspension in 1% methyl cellulose of the sodium salt.

[1] = time 30 mins prior to challenge
[2] = time 60 mins prior to challenge
[3] = time 10 mins prior to challenge

Row | Structure (SMILES) | inhibition in vivo at 25 mg/kg (time 0 mins prior to challenge) [%] | inhibition in vivo at 25 mg/kg [1] [%] | inhibition in vivo at 100 mg/kg (time 0 mins prior to challenge) [%] | inhibition in vivo at 100 mg/kg [1] [%] | inhibition in vivo at 25 mg/kg [2] [%] | inhibition in vivo at 100 mg/kg [2] [%] | inhibition in vivo at 25 mg/kg [3] [%] | inhibition in vivo at 100 mg/kg [3] [%]
1 | O=c1[nH]c2c(c(O)c1[N+](=O)[O-])CCCC2 [Example 1, 4-Hydroxy-3-nitro-5,6,7,8-tetrahydrocarbostyril] | 16 | 15 | 70 | 20 | – | – | – | –
2 | CC1CCc2c([nH]c(=O)c([N+](=O)[O-])c2O)C1 (centres unmarked) [Example 2, 4-Hydroxy-7-methyl-3-nitro-5,6,7,8-tetrahydrocarbostyril] | 36 | 49 | 76 | 40 | – | – | – | –
3 | O=c1[nH]c2c(c(O)c1[N+](=O)[O-])CCC2 [Example 3, 5,6-Cyclopenteno-4-hydroxy-3-nitro-α-pyridone] | 10 | -20 | 28 | 6 | – | – | – | –
4 | O=c1[nH]c2c(c(O)c1[N+](=O)[O-])CCCCC2 [Example 4, 5,6-cycloheptenyl-4-hydroxy-3-nitro-α-pyridone] | -10 | – | -3 | – | 1 | 27 | – | –
5 | CC1Cc2[nH]c(=O)c([N+](=O)[O-])c(O)c2C(C)C1 (centres unmarked) [Example 5, 5,7-dimethyl-4-hydroxy-3-nitro-5,6,7,8-tetrahydrocarbostyril] | 27 | 14 | 72 | 42 | – | – | – | –
6 | CC1CCc2[nH]c(=O)c([N+](=O)[O-])c(O)c2C1 (centres unmarked) [Example 6, 4-Hydroxy-6-methyl-3-nitro-5,6,7,8-tetrahydrocarbostyril] | 1 | – | 24 | – | 15 | 37 | – | –
7 | O=c1[nH]c2c(c(O)c1[N+](=O)[O-])CCCCCC2 [Example 7, 5,6-cyclooctenyl-4-hydroxy-3-nitro-α-pyridone] | – | 15 | – | 37 | – | – | 17 | 59
8 | CCn1c2c(c(O)c([N+](=O)[O-])c1=O)CCCC2 [Example 8, 1-Ethyl-4-hydroxy-3-nitro-5,6,7,8-tetrahydrocarbostyril] | -5 | 14 | 12 | 75 | – | – | – | –
9 | CCCn1c2c(c(O)c([N+](=O)[O-])c1=O)CCCC2 [Example 9, 4-Hydroxy-3-nitro-1-n-propyl-5,6,7,8-tetrahydrocarbostyril] | 51 | 25 | 18 | 69 | – | – | – | –
10 | CC(C)n1c2c(c(O)c([N+](=O)[O-])c1=O)CCCC2 [Example 10, 4-Hydroxy-1-isopropyl-3-nitro-5,6,7,8-tetrahydrocarbostyril] | 5 | 0 | 8 | 16 | – | – | – | –
11 | CCn1c2c(c(O)c([N+](=O)[O-])c1=O)CCC(C)C2 (centres unmarked) [Example 11, 1-Ethyl-4-hydroxy-7-methyl-3-nitro-5,6,7,8-tetrahydrocarbostyril] | 8 | 38 | 31 | 57 | – | – | – | –
